Where “and” joins values, the source holds several entries; their conditions need not be identical. Equal values may be shown once. Where a name gives a salt, the structure may show the parent alone.
Assays:
NR1/NR2A = target: T1, NR1/NR2A (Rattus norvegicus, UniProt P35439+Q00959); test: NMDA-induced membrane currents, Xenopus oocytes, Example 7; type: cell-based
T1 construct: expressed in transfected cells; host or cells: Xenopus oocytes injected with mRNA
Experimental: (§5) Plasmids were linearized with appropriate restriction enzyme prior to in vitro transcription using the Message Machine kit (Ambion, Inc., Austin, Tex.).
(§6) Oocytes were injected with 50 nL of RNA solutions using an electronic microinjector (Drummond Inc., Broomall, Pa.). […] The injected oocytes were used for experiments following 1-5 days of incubation in Barth's solution at 18-20° C.
(§7) The microelectrodes were fabricated with a programmed puller (Sutter Instrument Co., Calif.) from borosilicate glass capillaries and were filled with 3 M KCl solution. The resistance of filled microelectrodes was in the range of 1-3 MΩ. […] If not mentioned otherwise, during data acquisition oocytes were clamped at a holding potential of −70 mV. The membrane current was filtered at 500 Hz and sampled at 100 Hz. Drugs were applied using a gravity driven external perfusion system. The working ,volume of the recording chamber was 30 μl and the rate of the perfusion was 50 μl/sec. The drug application lasted 10 sec and was followed by a 60 sec wash. The data acquisition and external perfusion control were done using the SuperScopeII software package (GW Instruments, Mass.). […] Peak or steady-state current measurements were normalized and expressed as a fraction of the peak or steady-state control current measurements, which were performed before and after application of every single consentration of agonist or steroid. […]

[1] = target: T2, NR1011/NR2B-D chimera(IV) (Rattus norvegicus, UniProt P35439+Q62645, A747T/A861I/D811G/D828E/DEL874-885/E739D/E740D/F807L/G793D/G854A/H791Q/I800V/I813M/I830N/INS886[…]/K766R/K836Q/L790I/L804I/L808F/L850G/L858I/L870F/M815E/M890I/P736R/P799Q/Q744S/R732K/R737G/R765G/R795G/R818A/R869Q/S728A/S822T/T743L/T783S/V731G/V851A/V859T/V866F/W862C/Y733F); test: NR2 chimera study, Xenopus oocytes, Example 7; type: cell-based; conditions: 100 μM PS; 300 μM NMDA; 50 μM Glycine
T2 construct: expressed in transfected cells; host or cells: Xenopus oocytes
From the text: In the fourth chimera receptor, NR2B-DChimera (IV), the residues 727 to 892 were replaced on NR2D with residues 703 to 870 of NR2B, which contains the second extracellular domain, the fourth hydrophobic transmembrane domain and 31 residues from the C-terminal intracellular tail.
(§1) The chimeric receptors were generated by first introducing a series of silent restriction sites in both the NR2B and NR2D cDNA. The chimeric cDNAs were then constructed by replacing corresponding regions of one cDNA with that of the other. The silence site mutations were generated by a method involving PCR. […] This cassette was then ligated into the cDNA cut with the same two restriction enzymes.

NR1100/NR2A = NR1100/NR2A (Rattus norvegicus, UniProt P35439+Q00959); test: NMDA-induced currents of NR1 splice variants, Xenopus oocytes, Example 4; type: cell-based; design: expressed in transfected cells; host or cells: Xenopus oocytes co-injected with NR1100 and NR2A cRNA; conditions: NR1100/2A; 100 μM PS; 200 μM NMDA+10 μM glycine
Experimental: (§2) Overnight cultures (500 ml) of transformed bacterial cells were prepared in order to grow sufficient quantities for maxiprep isolation of the plasmid CDNA. Maxipreps were done using a Sorvall RC-5B ultracentrifuge, Qiagen columns and cDNA was quantitated with spectrophotometry (OD260 and OD260/ OD280 ratio). The resulting plasmid cDNA was linearized by digestion with an appropriate restriction enzyme that cleaves distal to the cDNA insert (XhoI for NR2A or NotI for NR1100, NR1000, NR1111, NR1011, NR1101, NR1001). […] The samples were stored at −20° C. until use.
(§3) In vitro transcription was performed using the Ambion mMessage mMachine kit with T7 (NR1100, NR1000, NR1111, NR1011, NR1101, NR1001) RNA polymerase. The reaction was assembled on ice and allowed to incubate at 37° C. for 1-2 hr. The resulting mRNA was precipitated (reaction termination) using lithium chloride/5 mM EDTA solution and dissolved in RNase-free H2O. The concentration (OD260) and OD260/OD280 ratio (should be more than 1.5) was determined by spectrophotometer. The yield of mRNA was generally 15-30 μg. mRNA was stored at −80° C. until use.
(§4) Intracellular recording microelectrodes were fabricated from 100 μl borosilicate glass disposable micropipettes using a 2-step protocol on a standard horizontal Flaming-Brown micropipette puller.

NR1000/NR2B = target: T3, NR1000/NR2B (Rattus norvegicus, UniProt P35439+Q00960); test: NMDA receptor currents in Ba-Ringer, Xenopus oocytes, Example 3; type: cell-based
T3 construct: expressed in transfected cells; host or cells: Xenopus oocytes injected with RNA
T3 sequence (Q00960 27-1482, other chains not shown): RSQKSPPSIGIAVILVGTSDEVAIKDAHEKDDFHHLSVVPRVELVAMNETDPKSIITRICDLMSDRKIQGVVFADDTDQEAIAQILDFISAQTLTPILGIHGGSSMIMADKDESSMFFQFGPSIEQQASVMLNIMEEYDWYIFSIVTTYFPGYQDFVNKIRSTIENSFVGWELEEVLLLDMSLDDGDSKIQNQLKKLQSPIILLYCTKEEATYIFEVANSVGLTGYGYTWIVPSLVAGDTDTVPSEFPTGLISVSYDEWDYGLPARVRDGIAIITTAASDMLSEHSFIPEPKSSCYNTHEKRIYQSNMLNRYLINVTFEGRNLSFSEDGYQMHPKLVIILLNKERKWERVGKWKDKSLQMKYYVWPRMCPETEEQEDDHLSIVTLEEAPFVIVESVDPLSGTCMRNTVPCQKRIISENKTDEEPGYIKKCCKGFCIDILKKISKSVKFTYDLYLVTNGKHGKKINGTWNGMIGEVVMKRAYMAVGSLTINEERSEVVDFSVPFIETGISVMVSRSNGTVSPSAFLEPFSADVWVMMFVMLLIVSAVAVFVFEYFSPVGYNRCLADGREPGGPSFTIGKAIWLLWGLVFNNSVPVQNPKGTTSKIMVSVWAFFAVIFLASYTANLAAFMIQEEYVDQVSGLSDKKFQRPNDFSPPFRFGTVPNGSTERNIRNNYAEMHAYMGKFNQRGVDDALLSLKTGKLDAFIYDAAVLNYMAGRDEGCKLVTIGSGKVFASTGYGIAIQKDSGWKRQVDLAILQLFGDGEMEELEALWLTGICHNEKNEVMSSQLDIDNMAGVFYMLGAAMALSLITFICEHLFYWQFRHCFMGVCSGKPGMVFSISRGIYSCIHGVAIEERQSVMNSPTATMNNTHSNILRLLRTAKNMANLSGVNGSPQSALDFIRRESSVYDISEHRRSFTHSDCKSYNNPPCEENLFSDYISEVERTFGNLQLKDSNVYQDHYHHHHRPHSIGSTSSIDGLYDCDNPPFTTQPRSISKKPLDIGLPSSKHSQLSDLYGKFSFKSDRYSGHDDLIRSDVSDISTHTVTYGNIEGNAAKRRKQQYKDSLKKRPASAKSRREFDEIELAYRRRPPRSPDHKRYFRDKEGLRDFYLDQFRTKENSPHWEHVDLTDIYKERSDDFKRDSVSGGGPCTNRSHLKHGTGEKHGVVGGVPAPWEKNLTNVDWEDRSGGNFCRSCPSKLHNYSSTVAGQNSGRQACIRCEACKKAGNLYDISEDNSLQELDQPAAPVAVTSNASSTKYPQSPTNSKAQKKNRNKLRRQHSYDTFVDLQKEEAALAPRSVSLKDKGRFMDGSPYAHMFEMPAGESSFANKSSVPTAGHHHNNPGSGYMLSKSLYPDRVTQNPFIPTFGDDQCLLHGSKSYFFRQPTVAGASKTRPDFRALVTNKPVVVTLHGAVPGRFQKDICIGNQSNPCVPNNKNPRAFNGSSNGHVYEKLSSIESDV

[2] = tested on: AMPA/kainate receptor (rat brain poly(A)+ RNA); test: Kainate-evoked currents, Xenopus oocytes injected with rat brain poly(A)+ RNA; type: cell-based
NR1/NR2D = target: T4, NR1/NR2D (Rattus norvegicus, UniProt P35439+Q62645); test: NMDA-induced membrane currents, Xenopus oocytes, Example 7; type: cell-based
T4 construct: expressed in transfected cells; host or cells: Xenopus oocytes injected with mRNA
Experimental: as §5, §6, §7

NR1101/NR2B = target: T5, NR1101/NR2B (Rattus norvegicus, UniProt P35439+Q00960); test: NMDA receptor currents in Ba-Ringer, Xenopus oocytes, Example 3; type: cell-based
T5 construct: expressed in transfected cells; host or cells: Xenopus oocytes

NR1/NR2C = target: T6, NR1/NR2C (Rattus norvegicus, UniProt P35439+Q00961); test: NMDA-induced membrane currents, Xenopus oocytes, Example 7; type: cell-based
T6 construct: expressed in transfected cells; host or cells: Xenopus oocytes injected with mRNA
T6 sequence (Q00961 20-1237, other chains not shown): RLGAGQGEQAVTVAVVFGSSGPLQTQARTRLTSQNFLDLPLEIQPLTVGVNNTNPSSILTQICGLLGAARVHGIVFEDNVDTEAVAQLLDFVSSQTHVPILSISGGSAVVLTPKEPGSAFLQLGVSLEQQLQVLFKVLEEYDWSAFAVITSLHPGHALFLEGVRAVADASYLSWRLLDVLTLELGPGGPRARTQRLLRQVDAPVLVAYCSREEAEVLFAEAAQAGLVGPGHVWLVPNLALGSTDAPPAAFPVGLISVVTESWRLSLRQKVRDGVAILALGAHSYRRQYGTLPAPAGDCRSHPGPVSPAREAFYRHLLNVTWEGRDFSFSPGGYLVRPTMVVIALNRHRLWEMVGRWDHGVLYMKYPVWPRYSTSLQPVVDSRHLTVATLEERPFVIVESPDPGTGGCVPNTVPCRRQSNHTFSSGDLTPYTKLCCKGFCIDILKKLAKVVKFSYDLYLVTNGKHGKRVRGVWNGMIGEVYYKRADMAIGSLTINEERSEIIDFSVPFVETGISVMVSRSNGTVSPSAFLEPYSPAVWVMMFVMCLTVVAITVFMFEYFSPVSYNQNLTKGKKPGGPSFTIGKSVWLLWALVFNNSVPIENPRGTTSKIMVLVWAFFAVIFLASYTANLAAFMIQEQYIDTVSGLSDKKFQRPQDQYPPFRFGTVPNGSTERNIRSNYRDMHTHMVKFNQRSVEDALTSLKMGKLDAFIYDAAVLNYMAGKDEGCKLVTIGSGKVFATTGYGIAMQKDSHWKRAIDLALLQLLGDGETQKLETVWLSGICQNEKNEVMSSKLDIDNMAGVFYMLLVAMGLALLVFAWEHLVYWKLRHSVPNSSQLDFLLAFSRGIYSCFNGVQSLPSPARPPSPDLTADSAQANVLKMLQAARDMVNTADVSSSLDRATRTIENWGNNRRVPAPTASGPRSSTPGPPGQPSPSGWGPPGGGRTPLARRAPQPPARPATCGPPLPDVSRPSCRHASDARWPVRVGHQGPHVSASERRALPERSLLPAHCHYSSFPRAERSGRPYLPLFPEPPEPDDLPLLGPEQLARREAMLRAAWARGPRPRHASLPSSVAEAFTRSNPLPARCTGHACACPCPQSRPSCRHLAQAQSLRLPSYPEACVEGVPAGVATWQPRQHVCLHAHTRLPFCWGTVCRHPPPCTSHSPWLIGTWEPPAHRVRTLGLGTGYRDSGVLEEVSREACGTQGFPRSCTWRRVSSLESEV
Experimental: as §5, §6, §7

NR1101/NR2A = NR1101/NR2A (Rattus norvegicus, UniProt P35439+Q00959); test: NMDA-induced currents of NR1 splice variants, Xenopus oocytes, Example 4; type: cell-based; design: expressed in transfected cells; host or cells: Xenopus oocytes injected with NR1101 and NR2A mRNA; conditions: NR1101/2A; 100 μM PS; 200 μM NMDA+10 μM glycine
Experimental: as §2, §3, §4

NR1100/NR2B = target: T7, NR1100/NR2B (Rattus norvegicus, UniProt P35439+Q00960); test: NMDA receptor currents in Ba-Ringer, Xenopus oocytes, Example 3; type: cell-based
T7 construct: expressed in transfected cells; host or cells: Xenopus oocytes injected with RNA
T7 sequence (Q00960 27-1482, other chains not shown): as the sequence (Q00960 27-1482, other chains not shown) above

NR1011/NR2Bwt = target: T8, NR1011/NR2Bwt (Rattus norvegicus, UniProt P35439+Q00960); test: NR2 chimera study, Xenopus oocytes, Example 7; type: cell-based; conditions: 100 μM PS; 300 μM NMDA; 50 μM Glycine
T8 construct: expressed in transfected cells; host or cells: Xenopus oocytes
From the text: as §1

NR1011/NR2Dwt = target: T9, NR1011/NR2Dwt (Rattus norvegicus, UniProt P35439+Q62645); test: NR2 chimera study, Xenopus oocytes, Example 7; type: cell-based; conditions: 100 μM PS; 300 μM NMDA; 50 μM Glycine
T9 construct: expressed in transfected cells; host or cells: Xenopus oocytes
From the text: as §1

NR1/NR2C (NR1100) = NR1/NR2C (NR1100) (Rattus norvegicus, UniProt P35439+Q00961); test: cell-based
Sequence of NR1/NR2C (NR1100) (Q00961 20-1237, other chains not shown): as the sequence (Q00961 20-1237, other chains not shown) above
From the text: (§8) Plasmids containing the NR1100 (NR1G) and NR2A cDNA inserts were kindly provided by Dr. Nakanishi (Kyoto University Faculty of Medicine, Kyoto, Japan). Plasmids containing the NR2B, NR2C and NR2D cDNA inserts were kindly provided by Dr. P. Seeburg (Heidelberg University, Heidelberg, Germany). Plasmids were linearized with appropriate restriction enzyme prior to in vitro transcription using the Message Machine kit (Ambion, Inc., Austin, Tex.).
(§9) Female, oocyte-positive Xenopus laevis frogs were purchased from Xenopus I (Dexter, Mich.). […] Oocytes were injected with 50 nL of RNA solutions using an electronic microinjector (Drummond Inc., Broomall, Pa.). […] The injected oocytes were used for experiments following 1-5 days of incubation in Barth's solution at 18-20° C.
(§10) The microelectrodes were fabricated from borosilicate glass capillaries with a programmed puller (Sutter Instrument Co., Calif.). Microelectrode resistance was 1-3 MΩ_when filled with 3 M KCl.
(§11) Except where otherwise stated, oocytes were clamped at a holding potential of −70 mV during data acquisition. The membrane current was filtered at 500 Hz and sampled at 100 Hz. Drugs were applied using a gravity-driven external perfusion system. The working volume of the recording chamber was 30 μl and the rate of the perfusion was 50 μl/sec. The drug application lasted 10 sec and was followed by 60 s wash. Data acquisition and external perfusion were controlled using custom-written software implemented in the SuperScope II development environment (GW Instruments, Mass.). All experiments were performed at room temperature of 22-24° C. Peak or steady-state current measurements were normalized and expressed as a fraction of the peak or steady-state control current measurements, which were performed before and after application of every single concentration of agonists or steroids.
(§12) Concentration-response data were analyzed by nonlinear regress ion using the logistic equation Response=Emax/(1+(EC50/c)^nH), where c is concentration, Emaxis the maximum response, nHis the Hill coefficient. The data are presented as mean±SEM. EC50values are averaged as logarithms (De Lean et al., Am. J. Physiol. 235: E97-E102 (1978))±the SEM of the log EC50. […] The pooled data were simultaneously fitted to the logistic equation, either with Emax and EC50 constrained to be identical in the presence and absence of PS, or allowing one or both to vary independently. […] This was regarded as indicating a significant treatment effect of PS, but the change in EC50and Emaxwas not considered significant. […] No attempt was made to test the generally small changes in nHfor statistical significance.

NR1/NR2B (NR1100) = NR1/NR2B (NR1100) (Rattus norvegicus, UniProt P35439+Q00960); test: cell-based
From the text: as §8, §9, §10, §11, §12

[3] = read-out: 3α5βS Emax (% Change)

pregnenolone sulfate [PS]
potentiation of NMDA responsive membrane current (NR1/NR2A; 100 μM PS, 80 μM NMDA, 10 μM glycine): 59±4% | maximum potentiation (NR1/NR2A; PS 0.5 to 200 μM): 67±7% | potentiation of inward current [1]: 66.05±2.75% and 66.05±2.76% | maximum relative current (MRC) (NR1100/NR2A): 1.73 | PS Emax (NR1000/NR2B): 0.58 ± 0.04 | PS nHill (NR1000/NR2B): 1.52 ± 0.15 | onset of inhibition [2]: < 10 s | reduction in kainate-evoked responses ([2]; 100 μM PS, 100 μM kainate): 49±3% | inhibition of NMDA-induced membrane currents (NR1/NR2D; 100 μM PS, 10 μM NMDA, 10 μM glycine): 29±2% | maximum inhibition (NR1/NR2D; PS 0.5 to 200 μM): 70±6% | PS Emax (NR1101/NR2B): 1.03 ± 0.02 | PS nHill (NR1101/NR2B): 1.63 ± 0.29 | inhibition of NMDA-induced membrane currents (NR1/NR2C; 100 μM PS, […] μM NMDA, 10 μM glycine): 32±3% | maximum inhibition (NR1/NR2C; PS 0.5 to 200 μM): 63±9% | maximum relative current (MRC) (NR1101/NR2A): 1.78 | PS Emax (NR1100/NR2B): 1.02 ± 0.10 | PS nHill (NR1100/NR2B): 1.42 ± 0.11 | potentiation of inward current (NR1011/NR2Bwt): 78.36±7.89% | inhibition of inward current (NR1011/NR2Dwt): 45.18±2.62%

CC(=O)[C@H]1CC[C@H]2[C@@H]3CC[C@@H]4C[C@H](OS(=O)(=O)O)CC[C@]4(C)[C@H]3CC[C@]12C [3α5βS, 3α5β-pregnanolone sulfate]
EC50 (NR1/NR2C (NR1100)): 12 µM | Emax (NR1/NR2C (NR1100); [3]): -99 ± 2% | EC50 (NR1/NR2B (NR1100)): 38 µM | Emax (NR1/NR2B (NR1100); [3]): -82 ± 1%

— US6623933B1 (priority 1999, dated 2003)
